Here are results for 55 molecules from patent publication US8551984B2, “Aminopyrimidines as SYK inhibitors” (Merck Sharp & Dohme Corp., priority 2009, dated 2013).

One test deals with recombinant human SYK (GST-hSYK fusion protein) (Homo sapiens, UniProt P43405). Briefly: biochemical. To be noted: Syk IC50, HTRF, recombinant human GST-SYK. (In general: In TR-FRET formats the signal depends on donor and acceptor labels being close together.)
Text: Homogeneous Time-Resolved Fluorescence (HTRF) Assay for the Recombinant Human SYK Enzyme:
The term IC50 denotes the midpoint of a concentration-inhibition curve. Take `Cc1cc(Nc2nccc([C@@H](C)F)n2)cc(-c2cnc([C@@]3(O)CC[C@H](C(=O)O)C(C)(C)C3)s2)c1` [(1S,4R)-4-{5-[3-({4-[(1R)-1-fluoroethyl]pyrimidin-2-yl}amino)-5-methylphenyl]-1,3-thiazol-2-yl}-4-hydroxy-2,2-dimethylcyclohexanecarboxylic acid]: the IC50 is less than 0.0005 µM.
Still for that read-out and setting: the same measure for `Cc1cc(Nc2nccc([C@H](C)F)n2)cc(-c2cnc([C@@]3(O)CC[C@H](C(=O)O)C(C)(C)C3)s2)c1` [(1S,4R)-4-{5-[3-({4-[(1S)-1-fluoroethyl]pyrimidin-2-yl}amino)-5-methylphenyl]-1,3-thiazol-2-yl}-4-hydroxy-2,2-dimethylcyclohexanecarboxylic acid]: less than 0.0005 µM.

The test is the same for the next values; noted with them: rhSYK Activity (IC50), recombinant human GST-SYK 5 pM, ATP 25 μM, biotinylated substrate peptide 250 nM, HTRF, 10-dose titration.
Consider `Cc1cc(Nc2nccc(C(F)(F)F)n2)cc(-c2cnc(C3(O)CC(C)(C)C(C(=O)O)CC3O)s2)c1` (stereo not drawn) [142(1), 1,4-Trans, 1,5-trans-4,5-dihydroxy-2,2-dimethyl-4-[5-(3-methyl-5-{[4-(trifluoromethyl)pyrimidin-2-yl]amino}phenyl)-1,3-thiazol-2-yl]cyclohexanecarboxylic acid], for which the IC50 was less than 0.1 µM.
Same read-out and setting: the same measure for `CO/C=C/c1ncc(-c2cc(C)cc(Nc3nccc(C(F)(F)F)n3)c2)s1` [153(A), N-(3-{2-[(E)-2-Methoxyethenyl]-1,3-thiazol-5-yl}-5-methylphenyl)-4-(trifluoromethyl)pyrimidin-2-amine]: less than 0.1 µM; for `CO/C=C\c1ncc(-c2cc(C)cc(Nc3nccc(C(F)(F)F)n3)c2)s1` [153(B), N-(3-{2-[(Z)-2-Methoxyethenyl]-1,3-thiazol-5-yl}-5-methylphenyl)-4-(trifluoromethyl)pyrimidin-2-amine]: less than 0.1 µM.
The same measure, in the same setting: the same measure for `CCOP(=O)(OCC)[C@]1(O)CC[C@](O)(c2ncc(-c3cc(C)cc(Nc4nccc(C(F)(F)F)n4)c3)s2)CC1` [155(B), Diethyl{trans-1,4-dihydroxy-4-[5-(3-methyl-5-{[4-(trifluoromethyl)pyrimidin-2-yl]amino}phenyl)-1,3-thiazol-2-yl]cyclohexyl}phosphonate]: less than 0.1 µM.

The same test, now with this note: rhSYK Activity, Table 10, Formula A.
For `COc1ccnc(Nc2cc(C)cc(-c3cnc(C4(O)CCNC(=O)CC4)s3)c2)n1` (stereo not shown) [Example 10A-1], the IC50 is less than 0.1 µM.
Same read-out and setting: the same measure for `COCc1cc(Nc2nccc(C(F)(F)F)n2)cc(-c2cnc(C3(O)CCNC(=O)CC3)s2)c1` (stereo not shown) [Example 10A-4]: less than 0.1 µM.

The test is the same for the next values; noted with them: rhSYK Activity, Table 10, Formula B.
With `Cc1cc(Nc2nccc(C(F)(F)F)n2)cc(-c2cnc(C3=CC(=O)NCC3)s2)c1` [Example 10B-1], the IC50 was less than 0.1 µM.

The test is the same for the next values; noted with them: rhSYK Activity, Table 15.
With `OC1(c2ncc(-c3cccc(Nc4nccc(C(F)(F)F)n4)c3)s2)CCCC1` [Example 15-2], the IC50 is less than 0.1 µM.
Still for that read-out and setting: to `Cc1cc(Nc2nccc(C(F)(F)F)n2)cc(-c2cnc(C(C)(O)C(F)(F)F)s2)c1` (stereo not shown) [Example 15-4] belongs less than 0.1 µM; to `CC(O)c1ncc(-c2cccc(Nc3nccc(C(F)(F)F)n3)c2)s1` (stereo not shown) [Example 15-5, 1-[5-(3-{[4-(Trifluoromethyl)pyrimidin-2-yl]amino}phenyl)-1,3-thiazol-2-yl]ethanol], less than 0.1 µM.

The test is the same for the next values; noted with them: rhSYK Activity, Table 21.
Turning to `FC(F)(F)c1ccnc(Nc2cccc(-c3cnc(C4CCCO4)s3)c2)n1` (stereo not shown) [Example 21-1], the IC50 is less than 0.1 µM.
On the same count and under the same terms, to `CN1CCOC(c2ncc(-c3cccc(Nc4nccc(C(F)(F)F)n4)c3)s2)C1` (stereo not shown) [Example 21-2] belongs less than 0.1 µM; to `CS(=O)(=O)Cc1ncc(-c2cccc(Nc3nccc(C(F)(F)F)n3)c2)s1` [Example 21-3], less than 0.1 µM; to `Cn1cc(-c2ncc(-c3cccc(Nc4nccc(C(F)(F)F)n4)c3)s2)cn1` [Example 21-4], less than 0.1 µM.
On the same count and under the same terms, to `FC(F)(F)c1ccnc(Nc2cccc(-c3cnc(C4CCOC4)s3)c2)n1` (stereo not shown) [Example 21-5] belongs less than 0.1 µM; to `FC(F)(F)c1ccnc(Nc2cccc(-c3cnc(CN4CCOCC4)s3)c2)n1` [Example 21-6], less than 0.1 µM; to `FC(F)(F)c1ccnc(Nc2cccc(-c3cnc(C4CCc5ccccc54)s3)c2)n1` (stereo not shown) [Example 21-7], 1 to 10 µM.
Still for that read-out and setting: the same measure for `CCN(CC)CCC(C)(O)c1ncc(-c2cccc(Nc3nccc(C(F)(F)F)n3)c2)s1` (stereo not shown) [Example 21-8]: 0.1 to 1 µM.
As to `FC1(F)CC(c2ncc(-c3cccc(Nc4nccc(C(F)(F)F)n4)c3)s2)C1` [Example 21-9], the IC50 is 0.1 to 1 µM.
Same read-out and setting: to `O=C1OCCN1Cc1ncc(-c2cccc(Nc3nccc(C(F)(F)F)n3)c2)s1` [Example 21-10] belongs less than 0.1 µM.
The same measure, in the same setting: the same measure for `COC(=O)[C@H]1CC[C@H](c2ncc(-c3cccc(Nc4nccc(C(F)(F)F)n4)c3)s2)CC1` [Example 21-11, methyl trans-4-[5-(3-{[4-(trifluoromethyl)pyrimidin-2-yl]amino}phenyl)-1,3-thiazol-2-yl]cyclohexanecarboxylate]: 0.1 to 1 µM; for `O=C(NCCO)[C@H]1CC[C@H](c2ncc(-c3cccc(Nc4nccc(C(F)(F)F)n4)c3)s2)CC1` [Example 21-12]: less than 0.1 µM; for `O=C1CC(c2ncc(-c3cccc(Nc4nccc(C(F)(F)F)n4)c3)s2)CN1` (stereo not shown) [Example 21-14]: less than 0.1 µM.
The same measure, in the same setting: the same measure for `FC(F)(F)c1ccnc(Nc2cccc(-c3cnc(C4COCCO4)s3)c2)n1` (stereo not shown) [Example 21-15]: less than 0.1 µM; for `CN1CC(c2ncc(-c3cccc(Nc4nccc(C(F)(F)F)n4)c3)s2)CCC1=O` (stereo not shown) [Example 21-17]: less than 0.1 µM.
Turning to `CN1CCCCCC1c1ncc(-c2cccc(Nc3nccc(C(F)(F)F)n3)c2)s1` (stereo not shown) [Example 21-18], the IC50 was in the range of 0.1 to 1 µM.

The test is the same for the next values; noted with them: rhSYK Activity, Table 27.
`OC(c1ncc(-c2cc(NCC(F)(F)F)cc(Nc3nccc(C(F)(F)F)n3)c2)s1)C(F)F` (stereo not shown) [Example 27-1]: the half-inhibitory concentration (IC50) is less than 0.1 µM.
The same measure, in the same setting: the same measure for `CC(O)(c1ncc(-c2cc(NCC(F)(F)F)cc(Nc3nccc(C(F)(F)F)n3)c2)s1)C(F)(F)F` (stereo not shown) [Example 27-2]: less than 0.1 µM.

Staying with this test, now noted: rhSYK Activity, Table 33-A.
For the molecule `Cc1cc(Nc2ncc(F)cn2)cc(-c2cnc(C3(O)CCC(C)(C(=O)O)CC3)s2)c1` (stereo not shown) [Example 33A-3], the concentration for half-maximal inhibition (IC50) is less than 0.1 µM.
Take `Cc1cc(Nc2ncc(F)cn2)cc(-c2cnc([C@]3(O)CC[C@](C)(C(=O)O)CC3)s2)c1` [Example 33A-4]: the IC50 was less than 0.1 µM.
Same read-out and setting: to `Cc1cc(Nc2nccc(C(F)(F)F)n2)cc(-c2cnc([C@]3(O)CC[C@H](C(=O)O)CC3)s2)c1` [Example 33A-8] belongs less than 0.1 µM; to `Cc1cc(Nc2nccc(C(F)(F)F)n2)cc(-c2cnc(C3(O)CCC(C(=O)O)(c4ccccc4)CC3)s2)c1` (stereo not shown) [Example 33A-9], less than 0.1 µM; to `CCOC(=O)C1(C)CCC(O)(c2ncc(-c3cc(C)cc(Nc4nccc(C(F)(F)F)n4)c3)s2)CC1` (stereo not shown) [Example 33A-11], 0.1 to 1 µM.
On the same count and under the same terms, the same measure for `Cc1cc(Nc2nccc(C(F)(F)F)n2)cc(-c2cnc([C@]3(O)CC[C@](C)(C(=O)O)CC3)s2)c1` [Example 33A-12]: less than 0.1 µM; for `Cc1cc(Nc2nccc(C(F)(F)F)n2)cc(-c2cnc(C3(O)CCC(C)(C(=O)O)CC3)s2)c1` (stereo not shown) [Example 33A-13]: less than 0.1 µM; for `COC(=O)C1(NC(C)=O)CCC(O)(c2ncc(-c3cc(C)cc(Nc4nccc(C(F)(F)F)n4)c3)s2)CC1` (stereo not shown) [Example 33A-14]: less than 0.1 µM.
As to `CC(=O)NC1(C(=O)O)CCC(O)(c2ncc(-c3cc(C)cc(Nc4nccc(C(F)(F)F)n4)c3)s2)CC1` (stereo not shown) [Example 33A-15], the IC50 is less than 0.1 µM.
Still for that read-out and setting: the same measure for `Cc1cc(Nc2nccc(C(F)(F)F)n2)cc(-c2cnc([C@]3(O)CC[C@H](CC(=O)O)CC3)s2)c1` [Example 33A-16]: less than 0.1 µM; for `Cc1cc(Nc2nccc(C(F)(F)F)n2)cc(-c2cnc(C3(O)CCC(CCC(=O)O)CC3)s2)c1` (stereo not shown) [Example 33A-18]: less than 0.1 µM; for `CCOC(=O)CCC1CCC(O)(c2ncc(-c3cc(C)cc(Nc4nccc(C(F)(F)F)n4)c3)s2)CC1` (stereo not shown) [Example 33A-21]: less than 0.1 µM.
With `O=C(O)[C@H]1CC[C@@](O)(c2ncc(-c3cc(Cl)cc(Nc4nccc(C(F)(F)F)n4)c3)s2)CC1` [Example 33A-22], the IC50 was less than 0.1 µM.
For `O=C(O)[C@H]1CC[C@@](O)(c2ncc(-c3cccc(Nc4nccc(C(F)(F)F)n4)c3)s2)CC1` [Example 33A-23], the IC50 was less than 0.1 µM.
Take `O=C(O)[C@H]1CC[C@](O)(c2ncc(-c3cccc(Nc4nccc(C(F)(F)F)n4)c3)s2)CC1` [Example 33A-24]: the IC50 was less than 0.1 µM.
On the same count and under the same terms, to `CCOC(=O)[C@H]1CC[C@](O)(c2ncc(-c3cccc(Nc4nccc(C(F)(F)F)n4)c3)s2)CC1` [Example 33A-25] belongs less than 0.1 µM.

The same test, now with this note: rhSYK Activity, Table 116A.
Take `Cc1cc(Nc2nccc([C@@H](C)F)n2)cc(-c2cnc([C@@]3(O)CC[C@H](C(=O)O)C(C)(C)C3)s2)c1` [116A-39]: the IC50 was less than 0.1 µM.
Still for that read-out and setting: to `Cc1cc(Nc2nccc([C@H](C)F)n2)cc(-c2cnc([C@@]3(O)CC[C@H](C(=O)O)C(C)(C)C3)s2)c1` [116A-40] belongs less than 0.1 µM.

The test is the same for the next values; noted with them: rhSYK Activity, table of Examples 16-x.
With `CCCC(=O)Nc1cc(Nc2nccc(C(F)(F)F)n2)cc(-c2cnc(C3(O)CCC3)s2)c1` [Example 16-1], the IC50 is less than 0.1 µM.
On the same count and under the same terms, the same measure for `O=C(Nc1cc(Nc2nccc(C(F)(F)F)n2)cc(-c2cnc(C3(O)CCC3)s2)c1)C1CC1` [Example 16-2]: less than 0.1 µM.

The test is the same for the next values; noted with them: rhSYK Activity, table of Examples 19-x.
Regarding `CCNC(=O)Nc1cc(Nc2nccc(C(F)(F)F)n2)cc(-c2cnc(C3(O)CCC3)s2)c1` [Example 19-1], the IC50 was less than 0.1 µM.
The same measure, in the same setting: the same measure for `NC(=O)Nc1cc(Nc2nccc(C(F)(F)F)n2)cc(-c2cnc(C3(O)CCC3)s2)c1` [Example 19-2]: less than 0.1 µM; for `CNC(=O)Nc1cc(Nc2nccc(C(F)(F)F)n2)cc(-c2cnc(C3(O)CCC3)s2)c1` [Example 19-3]: less than 0.1 µM.
As for `CC(C)NC(=O)Nc1cc(Nc2nccc(C(F)(F)F)n2)cc(-c2cnc(C3(O)CCC3)s2)c1` [Example 19-4], the IC50 was less than 0.1 µM.
Same read-out and setting: the same measure for `NC(=O)NC(=O)Nc1cc(Nc2nccc(C(F)(F)F)n2)cc(-c2cnc(C3(O)CCC3)s2)c1` [Example 19-5]: less than 0.1 µM.
